Source: patent US12274703B2, “Compositions and methods of treatment for neurological disorders comprising a dementia” (Gliapharm SA, priority 2017, dated 2025)
Read-outs that look alike come from different tables or passages of the source.

Experiments:
primary astrocytes = assay: High throughput screening for lactate secretion: acidification of extracellular medium (SNARF5); format: cell-based, mouse; parameters: key to Score / HTS Score (lactate) / HTS Score (SNARF5) / Score_SNARF: fraction of positive control activity (positive control = 100%); conditions: for Score_SNARF: primary screening confirmation (SNARF5); for Score / HTS Score (SNARF5) / Emax at 10 µM: 10 uM, 90 min; for Emax at 10 µM: Mus musculus, Astrocyte, 1.5 h
Outline: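 Mouse cortical astrocytes (DIV17) stimulated 90 min at 10 uM compound (1% DMSO) in low-bicarbonate DMEM, 5 mM glucose, with SNARF-5F; extracellular acidification read as 630/580 nm emission ratio (exc 480 nm). Duplicates; score as % of CCCP 2 uM control, hits >3× summed SD above DMSO.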

astrocytes [1] = assay: Extracellular lactate quantification; format: cell-based, mouse; conditions: for Score_LACTATE: Appendix I, secondary screening, dosage of extracellular lactate; for EC50: Mus musculus, Astrocyte
Outline: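 Primary cortical astrocytes from 1–2-day-old OF1 mouse pups, used at DIV14–17, stimulated 90 min at 37 °C in D5030 with 5 mM glucose, compounds 0–100 μM. Extracellular L-lactate measured enzymatically (LDH/NAD, pH 10, 1 h 37 °C) by NADH fluorescence (ex 340/em 450) against L-lactate standard curve.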

astrocytes [2] = assay: MTT viability assay; format: cell-based; conditions: Mus musculus, Astrocyte; CDC54K hits; cellular toxicity, 0-200 uM
Procedure: (§1) Primary cultures of cerebrocortical astrocytes were obtained from 1-2-day-old OF1 mouse pups (Charles River Laboratories). Briefly, cortices were isolated and minced in small pieces under a dissecting microscope. The cells were incubated for 30 min at 37° C. in a solution containing 20 U/ml of papain enzyme (Worthington Biochemical), L-cysteine 1 mM (Sigma), and 10 kU/ml DNase I (Worthington Biochemical) for an enzymatic dissociation. Papain activity was stopped by the addition of fetal calf serum (FCS) to the solution, and a single-cell suspension was then obtained by mechanical dissociation, which consisted in cells trituration in a DMEM (D7777, Sigma-Aldrich) medium (supplemented with 44 mm NaHCO3, and 10 ml/L antibiotic/antimycotic solution) containing 10% FCS. The cells were seeded at an average density of 6×10^4 cells/cm^2 in poly-D-lysine-coated 96, 12 or 6-well culture plates, depending on their use, and incubated at 37° C. in a humidified atmosphere containing 5% CO2/95% air. Culture medium was renewed twice per week. Cells were stimulated and harvested between DIV14 and DIV17, when confluence and cell growth were optimal.
For cell toxicity determination, astrocytes in 96-well plates were stimulated 24 h (37° C. 5% CO2/95% air) with a gradient ranging from 0.1 to 200 μM of tested compounds. After stimulation, 5 mg/ml thiazol blue tetrazolium bromide (MTT, Sigma-Aldrich) in warm D5030 complete medium was added to each well, and cells were incubated for 4 h at 37° C. (5% CO2). The medium was then removed by aspiration, and the reaction was stopped by the addition of 50 μl DMSO per well.
The amount of reduced MTT (formazan) solubilized in DMSO was then determined spectrophotometrically using absorbance at 570 nm (Safire 2; Tecan).
MTT cellular viability assay was performed on astrocytes exposed to molecules from the Prestwick library (Prestwick hits; concentrations ranging from 0 uM to 200 uM).
MTT cellular viability assay was performed on astrocytes exposed to CDC54K hits (concentrations ranging from 0 uM to 200 uM).

astrocytes [3] = assay: Production of H2O2 (mitochondrial activity); format: cell-based; conditions: Mus musculus, Astrocyte, 1.5 h; CDC54K hits; 0-200 uM, 90 min
Procedure: as §1
Hydrogene peroxide (H2O2) released in the supernatant is detected enzymatically with Amplex red (Zhou, Diwu et al. 1997). Oxidation of Amplex red is catalysed by the horseradish peroxidase in presence of H2O2 into highly fluorescent resorufin. Fluorescence measure is read at 545 nm extinction, 590 nm emission. The amount of H2O2 was expressed relatively to the proteins content extracted from the cells in culture. […]
Mitochondrial respiration in astrocytes was measured through production of H2O2 at 90 min after stimulation with CDC54K hits (ranging from 0 to 200 uM).

[4] = Appendix I, primary screening, relative to positive control
[5] = CDC54K hits, relative to positive control CCCP 2 uM
[6] = 1.5 h, CDC54K hits, 0-100 uM, 90 min, read-out: Lactate EC50
[7] = Appendix I, primary screening, relative to positive control, read-out: Score
[8] = CDC54K hits, relative to positive control CCCP 2 uM, read-out: HTS Score (SNARF5)

Row | SMILES | EC50 (astrocytes [1]; [6]) | IC50 (astrocytes [3]) | EC50 (astrocytes [1]; Appendix II, lactate secretion, read-out: EC50) | Score_SNARF (primary astrocytes; Appendix I) | Score (primary astrocytes; [4]) | HTS Score (SNARF5) (primary astrocytes; [5]) | Score_LACTATE (astrocytes [1]) | IC50 (astrocytes [2]) | Emax at 10 µM (primary astrocytes; [7]) | Emax at 10 µM (primary astrocytes; [8]) | Score Lact. (astrocytes [1]; Appendix II)
1 | Cc1ccccc1NC(=O)C1CCCN(c2ncnc3oc(C)c(C)c23)C1 (stereo not shown) [F228-0422] | 0.5 µM | > 200 µM | – | 0.7702 | 1.057 | 1.058 | 0.6364 | > 200 µM | – | – | –
2 | COc1ccccc1[N+]1=C2CCCCCN2C(O)(c2ccc(C)cc2)C1 (stereo not shown) [K404-0834] | 1.8 µM | > 200 µM | – | – | – | – | – | 150 µM | 112% | 112% | –
3 | CCc1nc(-c2csc(S(=O)(=O)NCc3ccc4c(c3)OCO4)c2)no1 [L287-0468] | 7.9 µM | > 200 µM | – | 0.6592 | 0.5971 | 0.597 | 0.6179 | > 200 µM | – | – | –
4 | CCn1nccc1-c1csc(S(=O)(=O)Nc2ccc(Cl)cc2F)c1 [L924-1031] | 25.3 µM | 48.6 µM | – | 0.8713 | 0.9286 | 0.929 | 1.632 | > 200 µM | – | – | –
5 | CC(=O)N1CCc2sc(S(=O)(=O)N3CCN(c4ccccc4C)CC3)cc2C1 [P025-0159] | 8.7 µM | > 200 µM | – | 0.8007 | 0.9535 | 0.953 | 0.9232 | > 200 µM | – | – | –
6 | COc1ccc(Nc2nc(N3CCOCC3)c3ccccc3n2)cc1.Cl [T0508-5190] | 3.1 µM | 185 µM | – | – | – | – | – | 75 µM | 45.9% | 45.9% | –
7 | c1ccc2c(c1)CCN(c1ncnc3sccc13)C2 [T0517-8250] | 3 µM | > 200 µM | – | – | – | – | – | 140 µM | 95.7% | 95.7% | –
8 | N#Cc1ccc(C(=O)N2CCC(Nc3ncnc4c3CCC4)C2)cc1 (stereo not shown) [T636-2387] | 11.5 µM | > 200 µM | 6.83 µM | – | – | 0.445 | – | > 200 µM | 44.5% | – | 0.30

Further lines, with some results ahead:

Row | EC50 (astrocytes [1]; [6]) | IC50 (astrocytes [3]) | EC50 (astrocytes [1]; Appendix II, lactate secretion, read-out: EC50) | SMILES | Score_SNARF (primary astrocytes; Appendix I) | Score (primary astrocytes; [4]) | HTS Score (SNARF5) (primary astrocytes; [5]) | Score_LACTATE (astrocytes [1]) | IC50 (astrocytes [2]) | Emax at 10 µM (primary astrocytes; [7]) | Emax at 10 µM (primary astrocytes; [8]) | Score Lact. (astrocytes [1]; Appendix II)
9 | 11 µM | > 200 µM | – | COc1cc(C)c(Cl)cc1S(=O)(=O)NCc1ccncc1 [T5580243] | 0.8565 | 0.8528 | 0.853 | 0.7229 | > 200 µM | – | – | –
10 | 7.9 µM | > 200 µM | – | O=C1CCCN1c1ccc(S(=O)(=O)Nc2cccc(/C=C/c3ccccn3)c2)cc1 [T5644989] | 0.8385 | 0.6796 | 0.68 | 0.7859 | > 200 µM | – | – | –
11 | 12.2 µM | > 200 µM | – | O=S(=O)(Nc1cc(F)cc(F)c1)c1ccc2ccccc2c1 [T5884038] | – | – | – | – | 70.5 µM | 72.1% | 72.1% | –
12 | 11.5 µM | > 200 µM | – | Cc1nc2ccc(NS(=O)(=O)c3cccc(F)c3)cc2s1 [T6937001] | 0.8557 | 0.8094 | 0.809 | 0.9088 | > 200 µM | – | – | –
